From PubChem BioAssay (NCI)
Several values for one entry are separate records, joined by “and”; a condition that tells them apart may be missing. Equal values may be shown once.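 These data come from cells grown in 96-well plates and exposed to compound for 48 hours at five concentrations. Abbreviation: GI50, concentration required for 50% inhibition of growth. Definition used: TGI = concentration required for complete inhibition of growth.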

Key:
Assay in all cases: growth of human tumour cells (NCI), 48 h
[1] = test system: COLO 205 colon
[2] = test system: HCT-116 colon
[3] = test system: HL-60(TB) leukemia
[4] = test system: HOP-92 NSCLC
[5] = test system: M14 melanoma
[6] = test system: MOLT-4 leukemia
[7] = test system: RPMI-8226 leukemia
[8] = test system: RXF 393 renal
[9] = test system: SF-295 CNS
[10] = test system: UACC-62 melanoma

SMILES	TGI [1]	TGI [2]	TGI [3]	TGI [4]	TGI [5]	TGI [6]	TGI [7]	TGI [8]	TGI [9]	TGI [10]	GI50 [1]	GI50 [2]	GI50 [3]	GI50 [4]	GI50 [6]	GI50 [7]	GI50 [8]	GI50 [9]	GI50 [10]	GI50 [5]
NCCSSCc1ccccc1CSSCCN	> 100 µM	> 100 µM	29.6 µM	> 100 µM	> 100 µM	> 100 µM	> 100 µM	> 100 µM	> 100 µM	> 100 µM										
COc1ccccc1Nc1cc(O)c2c(=O)cc(-c3ccccc3)oc2c1	> 100 µM	> 100 µM	34.9 µM	23.7 µM		> 100 µM	> 100 µM	5.34 µM	13.2 µM	12.8 µM	9.92 µM	3.31 µM	2.79 µM	3.76 µM	4.08 µM	4.51 µM	1.74 µM	2.98 µM	2.39 µM	
C=CCNC(=O)NCCCCC(NC(C)=O)C(=O)NCc1ccccc1 (stereo not given)	> 100 µM		> 100 µM	> 100 µM	> 100 µM	> 100 µM	> 100 µM	> 100 µM	> 100 µM	> 100 µM										
CC(C)(C)C(=O)OCOP(=O)(NCc1ccccc1)C1CCCN(O)C1=O (stereo not given)	13.7 µM	14.4 µM	13.7 µM	7.72 µM	18.7 µM	14.4 µM	7.28 µM	6.48 µM	29.5 µM	6.49 µM	2.47 µM	2.84 µM	3.59 µM	1.06 µM	2.61 µM	2.25 µM	1.76 µM	3.23 µM	2.22 µM	2.91 µM
Cc1c(C)c2ccc3oc4ccccc4c3c2oc1=O	> 100 µM	> 100 µM	> 100 µM	> 100 µM	> 100 µM	> 100 µM	> 100 µM	> 100 µM	> 100 µM	> 100 µM										
Cc1cnc2n1S(=O)(=O)c1cc(C(=O)Nc3cccc4nsnc34)c(Cl)cc1S2	54.6 µM	35.6 µM	> 100 µM	50.4 µM	> 100 µM	> 100 µM	39.7 µM	29.4 µM	49.3 µM	32.9 µM	23 µM	20.1 µM	24.7 µM	18.3 µM	45.1 µM	17.4 µM	12.9 µM	22.8 µM	17.1 µM	52.2 µM
CN(CCS(=O)(=O)N1C(=O)C2CCCN2C(=O)[C@@H]1Cc1ccccc1)C(=O)OCc1ccccc1 (stereo not given in full)	> 100 µM	> 100 µM	27.4 µM	> 100 µM	> 100 µM	53.5 µM	45.4 µM	> 100 µM	> 100 µM	95.7 µM										
CCc1ccc(Oc2c(-c3ccc(OCc4ccc(Cl)cc4)cc3O)n[nH]c2C(F)(F)F)cc1	3.27 µM	3.19 µM	4.86 µM	4.77 µM	3.71 µM	5.64 µM	5.25 µM	3.16 µM	4.74 µM	4.81 µM	1.71 µM	1.67 µM	2.41 µM	2.03 µM	2.46 µM	2.33 µM	1.65 µM	2.04 µM	1.8 µM	1.88 µM
O=C1[C@H]2ON(c3ccccc3)C(c3ccc([N+](=O)[O-])cc3)[C@H]2C(=O)N1c1ccc(Cc2ccc(N3C(=O)[C@@H]4ON(c5ccccc5)C(c5ccc([N+](=O)[O-])cc5)[C@@H]4C3=O)cc2)cc1 (stereo not given in full)	> 100 µM	> 100 µM	> 100 µM	99 µM	38.9 µM	> 100 µM	> 100 µM	> 100 µM	> 100 µM	> 100 µM										
O=c1c2c(nc3n1CCS3)[nH]c1cc([N+](=O)[O-])ccc12	> 100 µM	> 100 µM	> 100 µM	> 100 µM	> 100 µM	> 100 µM	> 100 µM	> 100 µM	> 100 µM	> 100 µM	41.4 µM	> 100 µM	20.1 µM	67.9 µM	81.5 µM	> 100 µM	92.6 µM	> 100 µM	> 100 µM	> 100 µM
Oc1ccc(C=Nc2ccccc2O)cc1	91.7 µM	> 100 µM	42.1 µM	> 100 µM	> 100 µM	> 100 µM	> 100 µM	> 100 µM	> 100 µM	> 100 µM										
Fc1ccc(-c2c(-c3ccncc3)nc3n2CCS3)cc1	> 25 µM	> 25 µM	> 25 µM	> 25 µM	> 25 µM	> 25 µM	> 25 µM	> 25 µM	> 25 µM	> 25 µM	> 25 µM	> 25 µM	> 25 µM	> 16.9 µM	> 25 µM	> 25 µM	> 12.9 µM	> 25 µM	> 25 µM	> 25 µM
Cc1nc2sccn2c1C(=O)NN	> 100 µM	> 100 µM	> 100 µM	> 100 µM		> 100 µM	> 100 µM	> 100 µM	> 100 µM	> 100 µM										
CC(C)C[C@H](NC(=O)CNC(=O)c1cc(Cl)ccc1Cl)B(O)O	> 38.5 µM	0.659 µM	0.212 µM	0.165 µM		0.0797 µM	0.0162 µM	0.0356 µM	0.1 µM	0.0457 µM	0.0432 µM	< 0.0131 µM	< 0.0167 µM	0.0231 µM	0.0187 µM	< 0.01 µM	< 0.0138 µM	0.0252 µM	< 0.0175 µM	0.0202 µM
COc1ccc2ncn(-c3cc(O[C@H](C)c4ccccc4C(F)(F)F)c(C(N)=O)s3)c2c1	3.24 µM	3.53 µM	1.01 µM	6.44 µM	3.23 µM	4.43 µM	8.44 µM	3.72 µM	6.16 µM	4.58 µM	0.0838 µM	0.125 µM	0.0905 µM	0.143 µM	0.122 µM	0.627 µM	0.0902 µM	0.162 µM	0.142 µM	0.0989 µM
O=C(O)c1cc(-c2ccc3cc4c(cc3c2)OCO4)nc2ccccc12	> 100 µM	> 100 µM	> 100 µM	87.9 µM	> 100 µM	> 100 µM	> 100 µM	> 100 µM	> 100 µM	> 100 µM										

SMILES	TGI [1]	TGI [2]	TGI [3]	TGI [4]	TGI [5]	TGI [6]	TGI [7]	TGI [8]	TGI [9]	TGI [10]	GI50 [1]	GI50 [2]	GI50 [3]	GI50 [4]	GI50 [6]	GI50 [7]	GI50 [8]	GI50 [9]	GI50 [10]	GI50 [5]
NNC(=O)C(=O)N/N=C(\CCCC(=O)Nc1ccc(Cl)cc1)CC(=O)c1ccc(F)cc1	> 100 µM	> 100 µM	> 100 µM	> 100 µM	> 100 µM	> 100 µM	> 100 µM	> 100 µM	> 100 µM	78.5 µM										
CC(=O)Nc1ccc(/C=C/C(=O)c2sc(-c3cccnc3)nc2C)cc1	> 100 µM		> 100 µM	> 100 µM		> 100 µM	> 100 µM	> 100 µM	> 100 µM	> 100 µM										
COC(=O)[C@@H]1c2cc3c(c(O)c2[C@@H](OC2OC(C)C(OC)C(C)(OC)C2OC)C[C@]1(C)O)C(=O)c1c(O)cc2c(c1C3=O)O[C@H]1O[C@]2(C)[C@H](O)[C@@H](N(C)C)[C@@H]1O (stereo not given in full)	0.0351 µM		0.107 µM	0.0546 µM and 0.418 µM	0.14 µM and 0.107 µM	0.229 µM and 0.0903 µM	0.0557 µM	0.0749 µM and 0.0594 µM	0.254 µM and 1.22 µM	0.0206 µM and 0.0277 µM										0.0194 µM
O=C(CCC(=O)Nc1ccc(Cl)c(Cl)c1)Cc1nc2ccccc2o1	> 100 µM	> 100 µM	> 100 µM	> 100 µM	> 100 µM	> 100 µM	> 100 µM	> 100 µM	> 100 µM	> 100 µM										
C=C[C@@H](C)[C@]1(C(=O)OC)CCCC12OCCO2	> 100 µM	> 100 µM	> 100 µM	> 100 µM	> 100 µM	> 100 µM	> 100 µM	> 100 µM	> 100 µM	> 100 µM										
C[C@@H](Oc1cc(-n2cnc3ccc(OC4CCN(C)CC4)cc32)sc1C(N)=O)c1ccccc1Cl	0.106 µM	3.15 µM	2.92 µM	2.78 µM		5.19 µM	6.66 µM	3.53 µM	4.34 µM	4.62 µM	0.00926 µM	0.0156 µM	0.00871 µM	0.0387 µM	0.0123 µM	0.0842 µM	0.0112 µM	0.0207 µM	0.033 µM	
C=CCC1(CN(C)C)CC/C(=C\c2ccc(OC)cc2)C1=O (stereo not given)	> 100 µM	> 100 µM	45.6 µM	> 100 µM	> 100 µM	> 100 µM	52.6 µM	> 100 µM	> 100 µM	> 100 µM										
CC[C@H](C)[C@H](NC(=O)[C@H]1CCCCN1C)C(=O)N(C)[C@H](C[C@@H](OC(C)=O)c1cccc(C(=O)N[C@@H](Cc2ccccc2)C[C@H](C)C(=O)OC)n1)C(C)C	0.0132 µM and 0.00446 µM	> 25 µM	0.00655 µM and < 0.0025 µM		0.0128 µM	> 25 µM	14.5 µM		0.00776 µM	> 25 µM	0.00182 µM and 0.0025 µM	0.00325 µM and 0.0025 µM	0.0017 µM and < 0.0025 µM	0.000632 µM and 0.0025 µM	0.00811 µM and 0.0111 µM	0.00268 µM and 0.0025 µM	0.00316 µM	0.00433 µM and 0.0025 µM	0.000589 µM and 0.0025 µM	0.00227 µM
CCOC(=O)Cc1c(C)c2cc(C(=O)c3ccccc3)c(O)cc2oc1=O	37.2 µM	> 100 µM	53.8 µM	58.8 µM	> 100 µM	> 100 µM	> 100 µM	> 100 µM	> 100 µM	> 100 µM										
CC(C)(O)C(O)COc1c2c(cc3oc(=O)ccc13)OCO2 (stereo not given)	> 100 µM	> 100 µM	> 100 µM	> 100 µM	> 100 µM	> 100 µM	> 100 µM	> 100 µM	> 100 µM	> 100 µM										
CC1Cc2c(Cl)ncnc2N(C)c2ccc(Cl)cc21 (stereo not given)	0.369 µM	12.6 µM	> 100 µM	0.986 µM	29.7 µM	> 100 µM	17.1 µM	1.46 µM	> 100 µM	69.2 µM	0.19 µM	0.314 µM	0.403 µM	0.279 µM	0.382 µM	0.441 µM	0.342 µM	0.341 µM	0.406 µM	0.312 µM
O=C(C(=O)c1cc2ccccc2[nH]1)c1cc2ccccc2[nH]1	> 347 µM	> 347 µM	> 347 µM	> 347 µM	> 347 µM	> 347 µM	> 110 µM	> 347 µM	> 347 µM	> 347 µM										
CN(Cc1ccccc1)Cn1ccnc1	> 86.7 µM	> 100 µM	> 100 µM	> 100 µM	39.6 µM	> 100 µM	> 78.1 µM	> 100 µM	> 100 µM	> 100 µM										
CN[C@H]1CN(c2ccc3c(=O)c(C(=O)O)cn(-c4nccs4)c3n2)C[C@@H]1OC	2.66 µM	4.58 µM	2.07 µM	0.938 µM	2.34 µM	1 µM	> 24 µM	3.63 µM	2.37 µM	1.95 µM	1.21 µM	0.437 µM	0.292 µM	0.176 µM	0.126 µM	1.08 µM	1.16 µM	0.332 µM	0.359 µM	0.783 µM
CNC(=O)c1c(C)oc2cc(Oc3ncnc4cc(OC)c(OC)cc34)ccc12	> 100 µM	> 100 µM	> 100 µM	> 100 µM		> 100 µM	> 100 µM	2.63 µM	> 100 µM	> 100 µM	> 100 µM	> 100 µM	> 100 µM	3.2 µM	> 100 µM	> 100 µM	0.235 µM	> 100 µM	> 100 µM	
COc1ccc(C2(Cl)c3ccccc3N(c3ccccc3)c3ccccc32)cc1	2.45 µM		4.25 µM	7.13 µM	1.38 µM	11 µM	1.36 µM	2.56 µM	1.85 µM	1.4 µM	0.421 µM		0.542 µM	1.88 µM	1.83 µM	0.218 µM	0.718 µM	0.301 µM	0.191 µM	0.224 µM
